Measurements from patent US20140315869A1, “THERAPEUTIC USES OF ECTOINE” (BITOP AG, priority 2011, published 2014).

Assays:
[1] = system: human neutrophils; assay: Apoptosis rate of isolated human neutrophil granulocytes (sub-G1 cells, propidium iodide, flow cytometry); format: cell-based; details: for prevention of the reduction of the apoptosis rate caused by CNP with or without budenoside / background apoptosis rate: Experiment 7, 1 mM test substance, 16 h; for prevention of the reduction of the apoptosis rate caused by CNP with or without budenoside: young volunteers; for background apoptosis rate: neutrophils from young volunteers
Procedure: The effect of ectoine on the apoptosis was investigated by way of human neutrophils. Neutrophils from young, healthy donors (3 male and 2 female) were isolated and treated with the amounts of ectoine (mM) indicated. Treatment was carried out with ectoine alone (open columns) and with 33 μg/ml of CNP (black columns). Ectoine was not administered in the control group (C).
The apoptotic cells were quantified in the following manner: The neutrophils were suspended in 300 μl of hypotonic solution containing propidium iodide (PI). The fluorescence of PI was determined by means of flow cytometry (FACScan cytometer, BD Biosciences). The results are shown as percentage of hypodiploidal DNA (sub-G1), corresponding to fragmented DNA which is characteristic of apoptotic cells.
The effect of ectoine on the apoptosis was investigated by way of human neutrophils. Neutrophils of young, healthy donors (3 male and 2 female) were isolated and pretreated for 2 hours with PBS (dark columns) and with 1 mM of ectoine (light columns). Subsequently, treatment took place with 33 μg/ml of carbon nanoparticles (ufCB: ultrafine carbon black), 300 nM LTB4, 20 ng/ml GM CSF or 1 μM of dexamethasone, respectively no treatment with proinflammatory factors. (†: significant difference with respect to control group; *: significant difference with respect to neutrophils treated with proinflammatory factors and PBS only; quantification of the apoptotic cells analogous to Experiment 2).
The neutrophil granulocytes were pretreated for 2 hours with 1 mM of ectoine resp. PBS following which treatment took place for 16 hours with 33 μg/ml CNP, 300 nM LTB4, 20 ng/ml GMCSF or PBS. […] (dark columns: pretreatment with ectoine; light columns: pretreatment with PBS; *: significant difference with respect to control group without CNP or inflammation mediators; §: significant difference with respect to the treatment without ectoine; quantification of the apoptotic cells analogously to Experiment 2).
For Experiments 5 to 7 neutrophil granulocytes were obtained from blood samples. Groups 1 and 2 consisted of persons who participated in a current patient study. Male patients (aged 40 to 80 years) with stable COPD history (GOLD III/IV) and healthy control patients from an identical age group.
The influence of ectoine in combination with the corticosteroid budesonide on the apoptosis rates of neutrophils is illustrated in FIG. 5. Sub-G1-cells were measured after propidium iodide coloration (FACS-flow cytometry). Cells: primary, peripheral neutrophils. Isolation of the neutrophils by Percoll® centrifugation. Cultivation of 2×10^6 neutrophils in the presence of 33 μg/ml CNP, 300 nM LTB4, 20 ng/ml GM-CSF, 1 μM budesonide, 1 mM ectoine and combinations thereof for 16 h. FIG. 5 A: cells cumulated from all samples (n=15), FIG. 5 B: cells from COPD patients (n=5), FIG. 5 C: cells from healthy age control group (n=5), FIG. 5 D: cells from young volunteers (n=5).
Sub-G1-cells were measured after propidium iodide coloration (FACS-flow cytometry). Cells: primary, peripheral, human neutrophils. Isolation of the neutrophils by Percoll® centrifugation and cultivation of 2×10^6 neutrophils in the presence of 33 μg/ml CNP, 1 μM budesonide, 1 mM ectoine, 1 mM urea, 1 mM ectoine amide and combinations thereof for 16 h. The cells were obtained from young volunteers (group 3), n=5, bud=budenoside. Two additional test substances (urea and the ectoine amide of 2-hydroxy-5-aminobenzoic acid) were examined to check whether they were capable of inhibiting anti-apoptotic effects on neutrophils.

[2] = system: neutrophils; assay: Neutrophil inflammation reactions in rats with carbon nanoparticles intratracheally administered; format: in vivo
Source text: Neutrophil inflammation reactions were examined in rats with carbon nanoparticles intratracheally administered. This involved administration both with and without ectoine. […] In the first place, the liberation of cinc-1 is initially due to epithelial cells and macrophages, whereas later on the liberation caused by the great amount of ultimately existing neutrophils dominates.
It thus follows that ectoine cannot only be used on a preemptive basis but also for the treatment of an already existing inflammation.
Carbon nanoparticles (CNP, 14 nm, Printex 90, Degussa, Frankfurt, Germany) were suspended in a phosphate buffered salt solution (PBS) by means of ultra-sonic treatment. Similarly, a 0.1 and a 1 mM solution of ectoine was produced in PBS. 0.4 ml of the CNP particle suspension was administered intratracheally to Fisher 344 female rats. Treatment with 0.4 ml of the ectoine solutions, respectively PBS took place after one and two days. The rats were sacrificed on the third day, their lungs purged with 4×5 ml of PBS each. The cells of the individual animals were suspended in 1 ml of PBS and centrifuged. The pellets were washed with PBS once and resuspended in 300 μl of hypotonic solution (0.1% sodium citrate, 0.1% triton×100) containing 50 μg/ml of propidium iodide (PI). To determine the rate of apoptosis a fluorescence measurement was finally performed.

[3] = system: Mcl-1; assay: Mcl-1 protein level in human primary peripheral neutrophils (western blot); format: cell-based; details: Experiment 6; 1 mM ectoine with 1 μM budesonide, also in the presence of 33 μg/ml CNP, 6 h
Procedure: (§1) The influence of ectoine in combination with budenoside on anti-apoptotic signals can be seen from FIG. 6. With selected samples of neutrophils relevant signals were detected via protein kinase B (Akt) and Mcl-1 by measurement of the Akt phosphorylation and the Mcl-1 protein level, with human primary peripheral neutrophils being used as cells. Isolation of the neutrophils by Percoll® centrifugation, the cultivation of 2×10^6 neutrophils in the presence of 33 μg/ml CNP, 1 μM budesonide, 1 mM ectoine and combinations thereof for 6 h. A protein isolation, western blot, luminescence on x-ray films was effected of material from each 3 COPD patients and 3 persons from the corresponding age control group.

[4] = system: protein kinase B (Akt); assay: Akt phosphorylation in human primary peripheral neutrophils (western blot); format: cell-based; details: Experiment 6; 1 mM ectoine with 1 μM budesonide, also in the presence of 33 μg/ml CNP, 6 h
Procedure: as §1

[5] = ectoine administered repeatedly after inflammation reaction triggered off several times

Compound | prevention of the reduction of the apoptosis rate caused by CNP with or without budenoside ([1]; 33 μg/ml CNP, 1 μM budesonide) | background apoptosis rate [1] | effectiveness compared with ectoine ([1]; cf. FIG. 7) | amount of neutrophils [2, 5] | cinc-1 level [2, 5] | liberation of cinc-1 ([2]; rats, carbon nanoparticles intratracheally with ectoine, after two days) | amount of neutrophils ([2]; rats, carbon nanoparticles intratracheally with ectoine, after two days, in comparison to the placebo group) | effect of ectoine given after commencement of the inflammatory reaction ([2]; two doses, one and two days after commencement of the inflammatory reaction) | Mcl-1 protein level, ectoine against budesonide effect [3] | reduction of the apoptosis rate caused by CNP ([1]; Experiment 2, neutrophils from young healthy donors, 33 μg/ml CNP, significant amounts of ectoine) | apoptosis rate reduced by inflammatory stimulants ([1]; Experiment 4, COPD and non-COPD patients, 2 h pretreatment 1 mM ectoine, then 16 h 33 μg/ml CNP, 300 nM LTB4 or 20 ng/ml GMCSF) | anti-apoptotic effect of proinflammatory substances combined with budesonide, with ectoine ([1]; Experiment 5, CNP, LTB4, GM-CSF combined with 1 μM budesonide, 1 mM ectoine) | anti-apoptotic effect of budesonide, with ectoine ([1]; Experiment 5, pretreatment 1 mM ectoine, 1 μM budesonide, no proinflammatory substances, all groups) | compensation of the reduction of the apoptosis rate due to pro-inflammatory factors ([1]; isolated human neutrophil granulocytes, CNP, LTB4 or GM-CSF) | apoptosis rate, ectoine alone ([1]; neutrophils without previous treatment with pro-inflammatory factors) | Akt phosphorylation, ectoine against budesonide effect [4]
CC1=NCCC(C(=O)Nc2ccc(O)c(C(=O)O)c2)N1 (stereo not drawn) [2-methyl-1,4,5,6-tetrahydropyrimidine-4-carboxylic acid amide of 2-hydroxy-5-aminobenzoic acid] | able to prevent the reduction of the apoptosis rate | did not have an influence on the background apoptosis rate | effectiveness comparable to ectoine itself | – | – | – | – | – | – | – | – | – | – | – | – | –
CC1=NCC[C@@H](C(=O)O)N1 [ectoine, (S)-2-methyl-1,4,5,6-tetrahydropyrimidine-4-carboxylic acid] | – | – | – | diminishing of the amount of neutrophils | lowering of the cinc-1 level | reduction of the liberation of cinc-1 | significant reduction of the amount of neutrophils | virtually had the same effect as an ectoine administration at the time the inflammatory reaction was triggered | capable of counteracting this effect | could virtually be eliminated | resulted in the apoptosis rate to be restored significantly | the anti-apoptotic effect was successfully prevented | obviates the anti-apoptotic effect of the budesonide significantly | can be compensated depending on concentration at least partially | did not result in an increase of the apoptosis rate | capable of counteracting this effect
NC(N)=O [urea, reference compound] | this could not be achieved | did not have an influence on the background apoptosis rate | – | – | – | – | – | – | – | – | – | – | – | – | – | –
